Laboratory results from US20230210999A1, “TARGETED PROTEASE DEGRADATION (TED) PLATFORM” (EUBULUS BIOTHERAPEUTICS INC., priority 2020, published 2023).

System: MV4;11 cells
Assay: Cell proliferation experiment (Alamar blue, 72 h), MV4;11
Assay type: cell-based, human
Conditions: Homo sapiens, MV4-11, MV4;11 cells; read-out: Inhibitory activity IC50 on MV4;11
Procedure: (§1) Reagents: RPMI-1640 medium, McCoy's 5A medium, IMDM medium, MEM medium, L-15 medium, fetal bovine serum. Penicillin-Streptomycin double antibody, trypsin, etc., 2-mercaptoethanol, NEAA, pyruvate, etc.
(§2) The cells were cultured in conventional ways, and the cells should be passed at least 2 generations before plating. Cells at the logarithmic growth phase were collected, prepared into single cell suspensions and counted. The concentration of cells was adjusted to the desired concentration, and cells were inoculated into a 96-well cell culture plate at 100 μl per well. 100 μL of complete medium of the test compound were added to each well, set up 2 duplicate wells for each concentration, and diluted with a 5-fold gradient, and continued to culture for 72 h. All cells were subjected to IC50 test for corresponding samples. The experimental results are shown in Test Example 4.
(§3) The fluorescence intensity of each well was detected using the Alarm blue method, and IC50 was calculated.
(§4) IC50 was calculated according to the following formula:
(§5) Y=Max+(Min−Max)/[1+(X/IC50)×Slope]
(§6) wherein Min, Max and Slope represent the minimum, maximum and slope respectively.

Row | Compound | IC50 [nM]
1 | O=C1CCC(N2Cc3cc(NC(=O)CCCCCCCCCNCCn4cc([C@]5(Cc6cccc(Nc7nccs7)n6)CC[C@@H](Oc6cccc(Cl)c6F)CC5)nn4)ccc3C2=O)C(=O)N1 (stereo partly drawn) [UB-180995] | > 1000
2 | O=C1CCC(N2Cc3c(NC(=O)CCCCCCCCCN[C@H]4CC[C@@H](n5cc(-c6ccc(Nc7ncc8c(n7)-c7ccc(Cl)cc7C(c7c(F)cccc7F)=NC8)cc6)nn5)CC4)cccc3C2=O)C(=O)N1 (stereo partly drawn) [UB-180996] | > 1000
3 | O=C1CCC(N2Cc3cc(NC(=O)CCNCCCOCCCCn4cc(-c5ccc(Nc6ncc7c(n6)-c6ccc(Cl)cc6C(c6c(F)cccc6F)=NC7)cc5)nn4)ccc3C2=O)C(=O)N1 (stereo not drawn) [UB-181000] | > 1000
4 | O=C1CCC(N2Cc3cc(NC(=O)CCNCCCOCCCCn4cc([C@]5(Cc6cccc(Nc7nccs7)n6)CC[C@@H](Oc6cccc(Cl)c6F)CC5)nn4)ccc3C2=O)C(=O)N1 (stereo partly drawn) [UB-181001] | > 1000
5 | O=C1CCC(N2Cc3c(NC(=O)CCCCCCCCCNCCn4cc([C@]5(Cc6cccc(Nc7nccs7)n6)CC[C@@H](Oc6cccc(Cl)c6F)CC5)nn4)cccc3C2=O)C(=O)N1 (stereo partly drawn) [UB-181002] | > 1000
6 | O=C1CCC(N2Cc3c(NC(=O)CCNCCOCCOCCn4cc([C@]5(Cc6cccc(Nc7nccs7)n6)CC[C@@H](Oc6cccc(Cl)c6F)CC5)nn4)cccc3C2=O)C(=O)N1 (stereo partly drawn) [UB-181003] | 100 to 1000
7 | O=C1CCC(N2Cc3cc(NC(=O)CCOCCOCCOCCN[C@H]4CC[C@@H](NC(=O)c5ccc(Nc6ncc7c(n6)-c6ccc(Cl)cc6C(c6c(F)cccc6F)=NC7)cc5)CC4)ccc3C2=O)C(=O)N1 (stereo partly drawn) [UB-181006] | > 1000
8 | NC(COCCCCCCCC(=O)Nc1ccc2c(c1)CN(C1CCC(=O)NC1=O)C2=O)Cn1cc(-c2ccc(Nc3ncc4c(n3)-c3ccc(Cl)cc3C(c3c(F)cccc3F)=NC4)cc2)nn1 (stereo not drawn) [UB-181007] | 100 to 1000
9 | O=C1CCC(N2Cc3cc(NC(=O)CNCCCOCCCCCn4cc(-c5ccc(Nc6ncc7c(n6)-c6ccc(Cl)cc6C(c6c(F)cccc6F)=NC7)cc5)nn4)ccc3C2=O)C(=O)N1 (stereo not drawn) [UB-181008] | 100 to 1000
10 | O=C1CCC(N2Cc3cc(NC(=O)CNCCCOCCCCCn4cc([C@]5(Cc6cccc(Nc7nccs7)n6)CC[C@@H](Oc6cccc(Cl)c6F)CC5)nn4)ccc3C2=O)C(=O)N1 (stereo partly drawn) [UB-181009] | 100 to 1000
11 | O=C1CCC(N2Cc3cc(C#CCCOCCOCCOCCNC4CCC(n5cc(-c6ccc(Nc7ncc8c(n7)-c7ccc(Cl)cc7C(c7c(F)cccc7F)=NC8)cc6)nn5)CC4)ccc3C2=O)C(=O)N1 (stereo not drawn) [UB-181010] | 100 to 1000
12 | O=C1CCC(N2Cc3cc(NC(=O)CNCCCCOCCCCn4cc(-c5ccc(Nc6ncc7c(n6)-c6ccc(Cl)cc6C(c6c(F)cccc6F)=NC7)cc5)nn4)ccc3C2=O)C(=O)N1 (stereo not drawn) [UB-181011] | 100 to 1000
13 | O=C1CCC(N2Cc3cc(C#CCCNCCOCCOCCn4cc(-c5ccc(Nc6ncc7c(n6)-c6ccc(Cl)cc6C(c6c(F)cccc6F)=NC7)cc5)nn4)ccc3C2=O)C(=O)N1 (stereo not drawn) [UB-181012] | 100 to 1000

Same assay, conditions: MV4;11 cells; read-out: Inhibitory activity IC50 on MV4;11

Row | Compound | IC50 [nM]
14 | O=C1CCC(N2Cc3c(NC(=O)CCCCCCCCCN[C@H]4CC[C@@H](n5cc(-c6ccc(Nc7ncc8c(n7)-c7ccc(Cl)cc7C(c7c(F)cccc7F)=NC8)cc6)nn5)CC4)cccc3C2=O)C(=O)N1 (stereo partly drawn) [UB-180997] | > 1000
15 | O=C1CCC(N2Cc3cc(NC(=O)CCOCCOCC(O)COCCn4cc(-c5ccc(Nc6ncc7c(n6)-c6ccc(Cl)cc6C(c6c(F)cccc6F)=NC7)cc5)nn4)ccc3C2=O)C(=O)N1 (stereo not drawn) [UB-181005] | > 1000

System: Daudi cells
Assay: Cell proliferation experiment, Daudi
Assay type: cell-based, human
Conditions: Daudi cells; read-out: Inhibitory activity IC50 on Daudi
Procedure: as §1, §2, §3, §4, §5, §6

Row | Compound | IC50 [nM]
16 | O=C1CCC(N2Cc3c(NC(=O)CCCCCCCCCN[C@H]4CC[C@@H](n5cc(-c6ccc(Nc7ncc8c(n7)-c7ccc(Cl)cc7C(c7c(F)cccc7F)=NC8)cc6)nn5)CC4)cccc3C2=O)C(=O)N1 (stereo partly drawn) [UB-180997] | > 1000

Same assay, conditions: Homo sapiens, Daudi, Daudi cells; read-out: Inhibitory activity IC50 on Daudi

Row | Compound | IC50 [nM]
17 | O=C1CCC(N2Cc3cc(NC(=O)CCCCCCCCCNCCn4cc([C@]5(Cc6cccc(Nc7nccs7)n6)CC[C@@H](Oc6cccc(Cl)c6F)CC5)nn4)ccc3C2=O)C(=O)N1 (stereo partly drawn) [UB-180995] | > 1000
18 | O=C1CCC(N2Cc3c(NC(=O)CCCCCCCCCN[C@H]4CC[C@@H](n5cc(-c6ccc(Nc7ncc8c(n7)-c7ccc(Cl)cc7C(c7c(F)cccc7F)=NC8)cc6)nn5)CC4)cccc3C2=O)C(=O)N1 (stereo partly drawn) [UB-180996] | > 1000
19 | O=C1CCC(N2Cc3cc(NC(=O)CCNCCCOCCCCn4cc(-c5ccc(Nc6ncc7c(n6)-c6ccc(Cl)cc6C(c6c(F)cccc6F)=NC7)cc5)nn4)ccc3C2=O)C(=O)N1 (stereo not drawn) [UB-181000] | > 1000
20 | O=C1CCC(N2Cc3cc(NC(=O)CCNCCCOCCCCn4cc([C@]5(Cc6cccc(Nc7nccs7)n6)CC[C@@H](Oc6cccc(Cl)c6F)CC5)nn4)ccc3C2=O)C(=O)N1 (stereo partly drawn) [UB-181001] | > 1000
21 | O=C1CCC(N2Cc3c(NC(=O)CCCCCCCCCNCCn4cc([C@]5(Cc6cccc(Nc7nccs7)n6)CC[C@@H](Oc6cccc(Cl)c6F)CC5)nn4)cccc3C2=O)C(=O)N1 (stereo partly drawn) [UB-181002] | > 1000
22 | O=C1CCC(N2Cc3c(NC(=O)CCNCCOCCOCCn4cc([C@]5(Cc6cccc(Nc7nccs7)n6)CC[C@@H](Oc6cccc(Cl)c6F)CC5)nn4)cccc3C2=O)C(=O)N1 (stereo partly drawn) [UB-181003] | > 1000
23 | O=C1CCC(N2Cc3cc(NC(=O)CCOCCOCC(O)COCCn4cc(-c5ccc(Nc6ncc7c(n6)-c6ccc(Cl)cc6C(c6c(F)cccc6F)=NC7)cc5)nn4)ccc3C2=O)C(=O)N1 (stereo not drawn) [UB-181005] | > 1000
24 | O=C1CCC(N2Cc3cc(NC(=O)CCOCCOCCOCCN[C@H]4CC[C@@H](NC(=O)c5ccc(Nc6ncc7c(n6)-c6ccc(Cl)cc6C(c6c(F)cccc6F)=NC7)cc5)CC4)ccc3C2=O)C(=O)N1 (stereo partly drawn) [UB-181006] | > 1000
25 | NC(COCCCCCCCC(=O)Nc1ccc2c(c1)CN(C1CCC(=O)NC1=O)C2=O)Cn1cc(-c2ccc(Nc3ncc4c(n3)-c3ccc(Cl)cc3C(c3c(F)cccc3F)=NC4)cc2)nn1 (stereo not drawn) [UB-181007] | 100 to 1000
26 | O=C1CCC(N2Cc3cc(NC(=O)CNCCCOCCCCCn4cc(-c5ccc(Nc6ncc7c(n6)-c6ccc(Cl)cc6C(c6c(F)cccc6F)=NC7)cc5)nn4)ccc3C2=O)C(=O)N1 (stereo not drawn) [UB-181008] | 100 to 1000
27 | O=C1CCC(N2Cc3cc(NC(=O)CNCCCOCCCCCn4cc([C@]5(Cc6cccc(Nc7nccs7)n6)CC[C@@H](Oc6cccc(Cl)c6F)CC5)nn4)ccc3C2=O)C(=O)N1 (stereo partly drawn) [UB-181009] | > 1000
28 | O=C1CCC(N2Cc3cc(C#CCCOCCOCCOCCNC4CCC(n5cc(-c6ccc(Nc7ncc8c(n7)-c7ccc(Cl)cc7C(c7c(F)cccc7F)=NC8)cc6)nn5)CC4)ccc3C2=O)C(=O)N1 (stereo not drawn) [UB-181010] | > 1000
29 | O=C1CCC(N2Cc3cc(NC(=O)CNCCCCOCCCCn4cc(-c5ccc(Nc6ncc7c(n6)-c6ccc(Cl)cc6C(c6c(F)cccc6F)=NC7)cc5)nn4)ccc3C2=O)C(=O)N1 (stereo not drawn) [UB-181011] | 10 to 100
30 | O=C1CCC(N2Cc3cc(C#CCCNCCOCCOCCn4cc(-c5ccc(Nc6ncc7c(n6)-c6ccc(Cl)cc6C(c6c(F)cccc6F)=NC7)cc5)nn4)ccc3C2=O)C(=O)N1 (stereo not drawn) [UB-181012] | > 1000

System: NCIH82 cells
Assay: Cell proliferation experiment, NCI-H82
Assay type: cell-based, human
Conditions: Homo sapiens, NCI-H82, NCI-H82 cells; read-out: Inhibitory activity IC50 on NCI-H82
Procedure: as §1, §2, §3, §4, §5, §6

Row | Compound | IC50 [nM]
31 | O=C1CCC(N2Cc3cc(NC(=O)CCCCCCCCCNCCn4cc([C@]5(Cc6cccc(Nc7nccs7)n6)CC[C@@H](Oc6cccc(Cl)c6F)CC5)nn4)ccc3C2=O)C(=O)N1 (stereo partly drawn) [UB-180995] | > 1000
32 | O=C1CCC(N2Cc3c(NC(=O)CCCCCCCCCN[C@H]4CC[C@@H](n5cc(-c6ccc(Nc7ncc8c(n7)-c7ccc(Cl)cc7C(c7c(F)cccc7F)=NC8)cc6)nn5)CC4)cccc3C2=O)C(=O)N1 (stereo partly drawn) [UB-180996] | > 1000
33 | O=C1CCC(N2Cc3cc(NC(=O)CCNCCCOCCCCn4cc(-c5ccc(Nc6ncc7c(n6)-c6ccc(Cl)cc6C(c6c(F)cccc6F)=NC7)cc5)nn4)ccc3C2=O)C(=O)N1 (stereo not drawn) [UB-181000] | > 1000
34 | O=C1CCC(N2Cc3cc(NC(=O)CCNCCCOCCCCn4cc([C@]5(Cc6cccc(Nc7nccs7)n6)CC[C@@H](Oc6cccc(Cl)c6F)CC5)nn4)ccc3C2=O)C(=O)N1 (stereo partly drawn) [UB-181001] | > 1000
35 | O=C1CCC(N2Cc3c(NC(=O)CCCCCCCCCNCCn4cc([C@]5(Cc6cccc(Nc7nccs7)n6)CC[C@@H](Oc6cccc(Cl)c6F)CC5)nn4)cccc3C2=O)C(=O)N1 (stereo partly drawn) [UB-181002] | > 1000
36 | O=C1CCC(N2Cc3c(NC(=O)CCNCCOCCOCCn4cc([C@]5(Cc6cccc(Nc7nccs7)n6)CC[C@@H](Oc6cccc(Cl)c6F)CC5)nn4)cccc3C2=O)C(=O)N1 (stereo partly drawn) [UB-181003] | > 1000
37 | O=C1CCC(N2Cc3cc(NC(=O)CCOCCOCCOCCN[C@H]4CC[C@@H](NC(=O)c5ccc(Nc6ncc7c(n6)-c6ccc(Cl)cc6C(c6c(F)cccc6F)=NC7)cc5)CC4)ccc3C2=O)C(=O)N1 (stereo partly drawn) [UB-181006] | > 1000
38 | NC(COCCCCCCCC(=O)Nc1ccc2c(c1)CN(C1CCC(=O)NC1=O)C2=O)Cn1cc(-c2ccc(Nc3ncc4c(n3)-c3ccc(Cl)cc3C(c3c(F)cccc3F)=NC4)cc2)nn1 (stereo not drawn) [UB-181007] | > 1000
39 | O=C1CCC(N2Cc3cc(NC(=O)CNCCCOCCCCCn4cc(-c5ccc(Nc6ncc7c(n6)-c6ccc(Cl)cc6C(c6c(F)cccc6F)=NC7)cc5)nn4)ccc3C2=O)C(=O)N1 (stereo not drawn) [UB-181008] | > 1000
40 | O=C1CCC(N2Cc3cc(NC(=O)CNCCCOCCCCCn4cc([C@]5(Cc6cccc(Nc7nccs7)n6)CC[C@@H](Oc6cccc(Cl)c6F)CC5)nn4)ccc3C2=O)C(=O)N1 (stereo partly drawn) [UB-181009] | > 1000
41 | O=C1CCC(N2Cc3cc(C#CCCOCCOCCOCCNC4CCC(n5cc(-c6ccc(Nc7ncc8c(n7)-c7ccc(Cl)cc7C(c7c(F)cccc7F)=NC8)cc6)nn5)CC4)ccc3C2=O)C(=O)N1 (stereo not drawn) [UB-181010] | > 1000
42 | O=C1CCC(N2Cc3cc(NC(=O)CNCCCCOCCCCn4cc(-c5ccc(Nc6ncc7c(n6)-c6ccc(Cl)cc6C(c6c(F)cccc6F)=NC7)cc5)nn4)ccc3C2=O)C(=O)N1 (stereo not drawn) [UB-181011] | > 1000
43 | O=C1CCC(N2Cc3cc(C#CCCNCCOCCOCCn4cc(-c5ccc(Nc6ncc7c(n6)-c6ccc(Cl)cc6C(c6c(F)cccc6F)=NC7)cc5)nn4)ccc3C2=O)C(=O)N1 (stereo not drawn) [UB-181012] | > 1000

Same assay, conditions: NCI-H82 cells; read-out: Inhibitory activity IC50 on NCI-H82

Row | Compound | IC50 [nM]
44 | O=C1CCC(N2Cc3c(NC(=O)CCCCCCCCCN[C@H]4CC[C@@H](n5cc(-c6ccc(Nc7ncc8c(n7)-c7ccc(Cl)cc7C(c7c(F)cccc7F)=NC8)cc6)nn5)CC4)cccc3C2=O)C(=O)N1 (stereo partly drawn) [UB-180997] | > 1000
45 | O=C1CCC(N2Cc3cc(NC(=O)CCOCCOCC(O)COCCn4cc(-c5ccc(Nc6ncc7c(n6)-c6ccc(Cl)cc6C(c6c(F)cccc6F)=NC7)cc5)nn4)ccc3C2=O)C(=O)N1 (stereo not drawn) [UB-181005] | > 1000
